Assay results as given in article PMC3471028, “A Laccase with Antiproliferative and HIV-I Reverse Transcriptase Inhibitory Activities from the Mycorrhizal Fungus Agaricus placomyces” (Journal of Biomedicine and Biotechnology, 2012).
Where a name gives a salt, the structure may show the parent alone.

System: T1, A. placomyces laccase
T1 construct: gene EC 1.10.3.2; native, purified from fruiting bodies; 68 kDa monomer
Assay: spectrophotometric oxidation assay, Lineweaver-Burk plot
Type: biochemical, Agaricus placomyces
Settings: 50 mM sodium acetate, pH 5.2, 30°C

| Km [µM] | Compound |
| --- | --- |
| 392 | Oc1ccc(O)cc1 [hydroquinone] |
| 775 | CCn1c(=NN=c2sc3cc(S(=O)(=O)O)ccc3n2CC)sc2cc(S(=O)(=O)O)ccc21 [ABTS, 2,7′-azinobis[3-ethylbenzothiazolone-6-sulfonic acid] diammonium salt] |
